Laboratory results as given in US11932839B2, “Microengineered tissue barrier system” (Georgia Tech Research Corporation, priority 2019, dated 2024).

Tested on: human astrocytes (HA)
Experiment: LCN2 expression (qRT-PCR) in human astrocytes stimulated with IL-1β
Assay type: cell-based
Details: 1 ng/mL or 10 ng/mL IL-1β, 20 h
Method: In order to compare the structure and function of human astrocytes (HA) in 2D and 3D cultures, HAs were seeded at a density of 1×10^6 cells/mL in Matrigel (Growth factor-reduced; Corning, NY, USA) coated 24-wells and in 3D Matrigel (5 mg/mL). After 1 day of culture, cells were stimulated with 1 ng/mL or 10 ng/mL of recombinant human interleukin-1-beta (IL-1β; Gibco, Grand Island, NY, USA) and incubated for another 20 h for analysis.
The gene expression level of the reactive gliosis marker in 2D or 3D cultured human astrocytes (HA) was confirmed through qRT-PCR analysis. To analyze glial reactivity of HA in 2D and 3D culture system (n=4), standard qRT-PCR was performed with a StepOnePlus Real-Time PCR system (Applied Biosystems) using TaqMan Fast Universal PCR Master Mix (Applied Biosystems). The target genes were assessed using commercially available primers, and the primers used in the experiment are shown in Table 2 below.

## IL-1β: recombinant human interleukin-1-beta, an inflammatory cytokine
HA inside 3D Matrigel, FIG. 41
  expression level of LCN2: dose-dependently controlled
HA on 2D Matrigel-coated surface, FIG. 40
  expression level of LCN2: dose-dependently controlled
